Laboratory results published in ChEMBL document CHEMBL1777768, “Comparative CYP1A1 and CYP1B1 substrate and inhibitor profile of dietary flavonoids” (Bioorg Med Chem, 2011).
Active and inactive are the calls of the source. The rule behind the calls is not given here.

Legend:
MCF-10A = test: Anticancer activity against non-CYP1 expressing human MCF10A cells by MTT assay; type: functional, cell-based
MDA-MB-468 [1] = test: Anticancer activity against CYP1 expressing human MDA-MB-468 cells by MTT assay; type: functional, cell-based
Cytochrome P450 1A1 [2] = target: T1, Cytochrome P450 1A1 (Homo sapiens, UniProt P04798); test: Inhibition of CYP1A1 EROD activity assessed as inhibition of deethylation of 7-ethoxyresorufin to resorufin; type: ADME
T1 sequence (P04798 whole entry): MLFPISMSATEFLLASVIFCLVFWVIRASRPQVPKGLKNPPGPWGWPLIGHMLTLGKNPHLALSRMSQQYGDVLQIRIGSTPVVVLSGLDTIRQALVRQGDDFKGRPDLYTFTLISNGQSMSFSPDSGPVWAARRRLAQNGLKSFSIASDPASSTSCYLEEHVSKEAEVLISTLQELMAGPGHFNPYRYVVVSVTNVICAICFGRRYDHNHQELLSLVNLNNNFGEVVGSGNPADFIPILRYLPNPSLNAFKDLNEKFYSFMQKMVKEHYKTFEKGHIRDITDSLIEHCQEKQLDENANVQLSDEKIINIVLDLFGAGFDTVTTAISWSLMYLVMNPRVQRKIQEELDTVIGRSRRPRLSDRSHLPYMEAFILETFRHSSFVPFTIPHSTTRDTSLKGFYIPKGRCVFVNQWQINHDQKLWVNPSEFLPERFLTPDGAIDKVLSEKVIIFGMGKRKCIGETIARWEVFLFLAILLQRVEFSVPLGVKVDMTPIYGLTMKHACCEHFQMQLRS

CYP1A1 = target: T2, CYP1A1 (Homo sapiens, UniProt P04798); test: Activity at CYP1A1 in recombinant human CYP1A1 microsomes assessed as parent compound remaining after 20 mins by HPLC analysis
T2 sequence (P04798 whole entry): T1 sequence (P04798 whole entry)

MDA-MB-468 [3] = test: Activation factor, ratio of IC50 for non-CYP1 expressing human MCF10A to IC50 for CYP1 expressing human MDA-MB-468 cells; type: functional
Cytochrome P450 1A1 [4] = target: T1, Cytochrome P450 1A1; test: Activity at recombinant CYP1A1 assessed as E5M1 metabolite elution time at 10 uM by HPLC analysis; type: ADME; conditions: recombinant enzyme
[5] = target: Cytochrome P450 1B1 (Homo sapiens) (UniProt Q16678); test: Activity at recombinant CYP1B1 assessed as E5M1 metabolite elution time at 10 uM by HPLC analysis; conditions: recombinant enzyme
Cytochrome P450 1B1 = target: T3, Cytochrome P450 1B1 (Homo sapiens, UniProt Q16678); test: Inhibition of CYP1B1 EROD activity assessed as inhibition of deethylation of 7-ethoxyresorufin to resorufin; type: ADME
T3 sequence (Q16678 whole entry): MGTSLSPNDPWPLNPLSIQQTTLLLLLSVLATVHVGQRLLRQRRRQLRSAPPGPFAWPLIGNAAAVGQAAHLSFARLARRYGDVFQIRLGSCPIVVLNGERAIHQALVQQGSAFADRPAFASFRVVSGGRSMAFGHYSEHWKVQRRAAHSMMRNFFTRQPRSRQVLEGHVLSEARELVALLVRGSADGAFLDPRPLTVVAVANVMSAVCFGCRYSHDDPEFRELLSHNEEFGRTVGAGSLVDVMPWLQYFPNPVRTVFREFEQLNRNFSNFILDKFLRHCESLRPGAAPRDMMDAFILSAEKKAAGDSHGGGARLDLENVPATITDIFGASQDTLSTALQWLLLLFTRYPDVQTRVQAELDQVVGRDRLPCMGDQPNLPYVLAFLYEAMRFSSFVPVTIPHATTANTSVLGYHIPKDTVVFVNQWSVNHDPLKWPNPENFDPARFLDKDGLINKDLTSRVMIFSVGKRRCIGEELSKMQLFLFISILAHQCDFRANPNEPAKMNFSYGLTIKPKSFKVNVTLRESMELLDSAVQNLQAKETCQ

Cytochrome P450 1A1 [6] = target: T1, Cytochrome P450 1A1; test: Activity at recombinant CYP1A1 assessed as luteolin production at 10 uM after 20 mins by HPLC analysis; type: ADME; conditions: recombinant enzyme
Cytochrome P450 1A1 [7] = target: T1, Cytochrome P450 1A1; test: Activity at recombinant CYP1A1 assessed as AM1 metabolite retention time at 10 uM by HPLC analysis; type: ADME; conditions: recombinant enzyme
Cytochrome P450 1A1 [8] = target: T1, Cytochrome P450 1A1; test: Activity at recombinant CYP1A1 assessed as apigenin production at 10 uM after 20 mins by HPLC analysis; type: ADME; conditions: recombinant enzyme
Cytochrome P450 1A1 [9] = target: T1, Cytochrome P450 1A1; test: Activity at recombinant CYP1A1 assessed as AM1 metabolite production at 10 uM after 20 mins by HPLC analysis; type: ADME; conditions: recombinant enzyme
Cytochrome P450 1A1 [10] = target: T1, Cytochrome P450 1A1; test: Activity at recombinant CYP1A1 assessed as scutellarein production at 10 uM after 20 mins by HPLC analysis; type: ADME; conditions: recombinant enzyme

Ki (Cytochrome P450 1A1 [2]) [µM] | remaining at 20 min (CYP1A1) [%] | Ki (Cytochrome P450 1B1) [µM] | Structure (SMILES) | Ratio IC50 (MDA-MB-468 [3]) | also measured
0.63 | 20.4 | 0.67 | COc1ccc(-c2cc(=O)c3c(OC)c(OC)c(OC)cc3o2)cc1O | 100 | Activity (MCF-10A): inactive; Activity (MDA-MB-468 [1]): Active; Time (Cytochrome P450 1A1 [4]): 8.9 min; Time [5]: 8.9 min
– | 15.9 | – | COc1ccc(-c2cc(=O)c3c(O)cc(O)cc3o2)cc1 [ACACETIN] | – | Activity (Cytochrome P450 1A1 [6]): Active; Time (Cytochrome P450 1A1 [7]): 11.3 min; Activity (Cytochrome P450 1A1 [8]): Active; Activity (Cytochrome P450 1A1 [9]): Active; Activity (Cytochrome P450 1A1 [10]): Active
1.22 | – | 0.26 | O=c1cc(-c2ccccc2)oc2cc(O)c(O)c(O)c12 [BAICALEIN] | 1.7 | –
– | 15.9 | – | O=c1cc(-c2ccccc2)oc2cc(O)cc(O)c12 [CHRYSIN] | – | –
> 0.8 | 16.7 | > 0.8 | COc1cc2oc(-c3ccc(O)c(O)c3)cc(=O)c2c(O)c1OC [CIRSILIOL] | 8 | –
0.21 | 47.8 | 0.035 | COc1ccc(-c2cc(=O)c3c(O)c(OC)c(OC)cc3o2)cc1O [EUPATORIN] | 100 | –
> 2.34 | 34 | > 2.34 | COc1cc(O)c2c(=O)cc(-c3ccc(O)cc3)oc2c1 [GENKWANIN] | 47 | –
1.64 | 12.6 | 0.22 | O=c1cc(-c2ccc(O)cc2)oc2cc(O)c(O)c(O)c12 [SCUTELLAREIN] | 3.3 | –
– | 68.9 | – | COc1ccc(-c2cc(=O)c3c(OC)c(OC)c(OC)cc3o2)cc1OC [SINENSETIN] | 325 | –

Structure (SMILES) | Ki (Cytochrome P450 1A1 [2]) [µM] | remaining at 20 min (CYP1A1) [%] | Ki (Cytochrome P450 1B1) [µM] | Ratio IC50 (MDA-MB-468 [3]) | also measured
O=c1c(O)c(-c2cc(O)c(O)c(O)c2)oc2cc(O)cc(O)c12 [MYRICETIN] | 0.37 | – | 0.027 | – | –
